In patent US12612379B2, “Inhibitors of APOL1 and methods of using same” (Vertex Pharmaceuticals Incorporated, priority 2021, dated 2026):

Biological target: T1, APOL1 (tet-inducible transgenic APOL1 T-REx-HEK293 cell lines) (Homo sapiens, UniProt O14791)
T1 sequence (O14791 1-398 S342G/I384M): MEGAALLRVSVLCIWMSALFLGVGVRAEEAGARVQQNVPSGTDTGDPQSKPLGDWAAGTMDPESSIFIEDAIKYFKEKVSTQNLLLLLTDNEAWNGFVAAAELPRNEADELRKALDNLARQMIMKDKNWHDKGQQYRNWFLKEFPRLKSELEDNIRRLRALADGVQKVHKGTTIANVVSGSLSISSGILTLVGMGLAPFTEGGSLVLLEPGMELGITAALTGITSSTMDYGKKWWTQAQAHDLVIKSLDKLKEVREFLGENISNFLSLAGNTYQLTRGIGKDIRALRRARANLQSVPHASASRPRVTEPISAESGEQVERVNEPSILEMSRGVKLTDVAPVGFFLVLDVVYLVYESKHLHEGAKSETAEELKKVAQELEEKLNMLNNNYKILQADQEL
Assay: MultiTox-Fluor Multiplex Cytotoxicity Assay for APOL1 inhibitor properties
Type: cell-based
Settings: APOL1 induced with 50 ng/mL tet, 24 hours with compound, ratio of dead to live cells, top concentration 10 μM; APOL1 variant (G0/G1/G2) not stated; read-out: IP50 (nM) (i.e., IC50 for cell proliferation)
Method: The MultiTox-Fluor Multiplex Cytotoxicity Assay is a single-reagent-addition, homogeneous, fluorescence assay that measures the number of live and dead cells simultaneously in culture wells. The assay measures cell viability and cytotoxicity by detecting two distinct protease activities. The live-cell protease activity is restricted to intact viable cells and is measured using a fluorogenic, cell-permeant peptide glycyl-phenylalanylamino fluorocoumarin (GF-AFC) substrate. The substrate enters intact cells, where it is cleaved to generate a fluorescent signal proportional to the number of living cells. […] A second, cell-impermeant, fluorogenic peptide substrate (bis-AAF-R110 Substrate) is used to measure dead-cell protease that has been released from cells that have lost membrane integrity. A ratio of dead to live cells is used to normalize data.
Briefly, the tet-inducible transgenic APOL1 T-REx-HEK293 cell lines were incubated with 50 ng/mL tet to induce APOL1 in the presence of 3-(2-(4-fluorophenyl)-1H-indol-3-yl)-N-((3S,4R)-4-hydroxy-2-oxopyrrolidin-3-yl)propenamide at 10.03, 3.24, 1.13, 0.356, 0.129, 0.042, 0.129, 0.0045, 0.0015, 0.0005 μM in duplicate for 24 hours in a humidified 37° C. incubator. The MultiTox reagent was added to each well and placed back in the incubator for an additional 30 minutes. The plate was read on the EnVision plate reader. A ratio of dead to live cells was used to normalize, and data was imported, analyzed, and fit using Genedata Screener (Basel, Switzerland) software. Data was normalized using percent of control, no tet (100% viability), and 50 ng/mL tet treated (0% viability), and fit using Smart Fit. The reagents, methods, and complete protocol for the MultiTox assay are described below.
Human embryonic kidney (HEK293) cell lines containing a tet-inducible expression system (T-REx™; Invitrogen, Carlsbad, CA) and Adeno-associated virus site 1 pAAVS1-Puro-APOL1 G0 or pAAVS1-Puro-APOL1 G1 or pAAVS1-Puro-APOL1 G2 Clones G0 DC2.13, G1 DC3.25, and G2 DC4.44 were grown in a T-225 flask at ˜90% confluency in cell growth media (DMEM, 10% Tet-free FBS, 2 mM L-glutamine, 100 Units/mL penicillin-streptomycin, 5 μg/mL blasticidin S HCl, 1 μg/mL puromycin dihydrochloride). Cells were washed with DPBS and then trypsinized to dissociate from the flask. Media was used to quench the trypsin, cells were then pelleted at 200 g and resuspended in fresh cell assay media (DMEM, 2% Tet-free FBS, 2 mM L-glutamine, 100 Units/mL penicillin-streptomycin). Cells were counted and diluted to 1.17×10^6 cells/mL. 20 μL of cells (23,400/well) were dispensed in every well of a 384-well Poly-D-Lysine coated plate using the Multidrop dispenser. The plates were then incubated at room temperature for one hour.
Tetracycline is needed to induce APOL1 expression. 1 mg/mL tet stock in water was diluted to 250 ng/mL (5×) in cell assay media. 60 μL of cell assay media (no tet control) was dispensed in columns 1 and 24, and 60 μL of 5×tet in 384-PP-round bottom plate was dispensed in columns 2 to 23 with the Multidrop dispenser.
Assay ready plates from the Global Compound Archive were ordered using template 384_APOL1Cell_DR10n2_50 uM_v3. Compounds were dispensed at 200 nL in DMSO. The final top concentration was 10 μM with a 10 point 3-fold dilution in duplicate in the MultiTox assay.
20 μL was transferred from the 5×tet plate to the ARP and mixed, then 5 μL of 5×tet and the compounds were transferred to the cell plate and mixed using the Bravo. The cell plate was placed in the humidified 37° C. 5% CO2 incubator for 24 hours.
The MultiTox-Fluor Multiplex Cytotoxicity Assay was performed in accordance with the manufacturer's protocol. After cells were incubated with tet and compound for 24 hours, 25 μL of 1×MultiTox reagent was added to each well using the Multidrop dispenser; the plates were placed on a plate shaker (600 rpm) for 2 minutes, then centrifuged briefly and placed back in the 37° C. incubator for 30 minutes. […]

Q: With C[C@H]1C[C@@](O)(c2ccc3cn[nH]c3c2)C[C@@H](c2cn(C)nn2)N1 [Compound 52] as the compound, how does the IC50 read?
A: ≤ 50 nM

Q: How did the IC50 turn out when C[C@H]1C[C@@](O)(c2ccc3c(c2)OCC3)C[C@@H](c2cn(C)nn2)N1 [Compound 53] was run?
A: ≥ 500 nM

Q: For C[C@H]1C[C@@](O)(c2ccc3cn(C)nc3c2)C[C@@H](c2cn(C)nn2)N1 [Compound 54], which IC50 is on record?
A: ≥ 500 nM

Q: Which IC50 does the source give for C[C@H]1C[C@@](O)(c2ccc3c(c2)nnn3C)C[C@@H](c2cn(C)nn2)N1 [Compound 55] here?
A: ≥ 500 nM

Q: C[C@H]1C[C@@](O)(c2ccc3c(cnn3C)c2)C[C@@H](c2cn(C)nn2)N1 [Compound 56] was tested. Which IC50 did it give?
A: ≥ 500 nM

Q: How did the IC50 turn out when C[C@H]1C[C@@](O)(c2ccc3nnn(C)c3c2)C[C@@H](c2cn(C)nn2)N1 [Compound 57] was run?
A: ≥ 500 nM

Q: For C[C@H]1C[C@@](O)(c2ccc3cnn(C)c3c2)C[C@@H](c2cn(C)nn2)N1 [Compound 58], which IC50 is on record?
A: ≤ 50 nM

Q: Cc1nn(C)c2ccc([C@@]3(O)C[C@@H](c4cn(C)nn4)N[C@@H](C)C3)cc12 [Compound 59] was tested. Which IC50 did it give?
A: 50 to 500 nM

Q: For C[C@H]1C[C@@](O)(C2CCCCC2)C[C@@H](c2cn(C)nn2)N1 [Compound 60, (2S,4S,6S)-4-cyclohexyl-2-methyl-6-(1-methyltriazol-4-yl)piperidin-4-ol], which IC50 is on record?
A: ≥ 500 nM

Q: With C[C@H]1C[C@@](O)(Cc2cccc(C(F)(F)F)c2)C[C@@H](c2cn(C)nn2)N1 [Compound 61, (2S,4S,6S)-2-methyl-6-(1-methyltriazol-4-yl)-4-[[3-(trifluoromethyl)phenyl]methyl]piperidin-4-ol] as the compound, how does the IC50 read?
A: ≥ 500 nM

Q: Which IC50 does the source give for CC1CC(O)(c2ccc(C(F)(F)F)cc2)CC(c2c[nH]nn2)N1 (stereo not shown) [Compound 62, 2-methyl-6-(1H-triazol-4-yl)-4-[4-(trifluoromethyl)phenyl]piperidin-4-ol] here?
A: ≤ 50 nM

Q: Which IC50 does the source give for C[C@H]1C[C@@](C#N)(c2ccc(Cl)cn2)C[C@@H](c2cn(C)nn2)N1 [Compound 63, (2S,4S,6S)-4-(5-chloropyridin-2-yl)-2-methyl-6-(1-methyl-1H-1,2,3-triazol-4-yl)piperidine-4-carbonitrile] here?
A: ≥ 500 nM

Q: For C[C@H]1C[C@@](C(N)=O)(c2ccc(Cl)cn2)C[C@@H](c2cn(C)nn2)N1 [Compound 64], which IC50 is on record?
A: ≥ 500 nM

Q: Which IC50 does the source give for C[C@H]1C[C@@](CO)(c2ccc(C(F)(F)F)cc2)C[C@@H](c2cn(C)nn2)N1 [Compound 65, ((2S,4S,6S)-2-methyl-6-(1-methyl-1H-1,2,3-triazol-4-yl)-4-(4-(trifluoromethyl)phenyl)piperidin-4-yl)methanol] here?
A: 50 to 500 nM

Q: How did the IC50 turn out when C[C@H]1C[C@@H](c2ccc(C(F)(F)F)cc2)C[C@@H](c2cn(C)nn2)N1 [Compound 66, (2S,4R,6S)-2-methyl-6-(1-methyltriazol-4-yl)-4-[4-(trifluoromethyl)phenyl]piperidine] was run?
A: 50 to 500 nM

Q: With C[C@H]1C[C@@](C(N)=O)(c2ccc(C(F)(F)F)cc2)C[C@@H](c2cn(C)nn2)N1 [Compound 67, (2S,4S,6S)-2-methyl-6-(1-methyl-1H-1,2,3-triazol-4-yl)-4-(4-(trifluoromethyl)phenyl)piperidine-4-carboxamide] as the compound, how does the IC50 read?
A: 50 to 500 nM
